Test results taken from patent US6984499B2, “Method and apparatus for concurrently detecting pathogenic organisms and antimicrobial susceptibility” (IDEXX Laboratories, Inc., priority 1997, dated 2006).

Key:
[1] = test system: primary gram negative uropathogens; assay: five-well device (TVB, UTI, AMO, AMC, ENR wells), fluorescence, four urine samples; format: cell-based; details: Sample 2; incubation 18 hours
Text: In a presently preferred embodiment, this invention comprises a device having a series of 5 test wells. Each well comprises a specific medium coupled with a fluorogenic enzyme substrate for the detection of target bacteria and their respective antibiotic resistance patterns. The wells produce a fluorescent signal when bacteria grow in them.
The wells were termed a total viable bacteria “TVB” well, a primary gram negative urinary tract infection organisms “UTI” well, and individual wells which contain an antimicrobial susceptibility media with an antibiotic amoxicillin “AMO”, clavulanic acid/amoxicillin (Clavamox®) “AMC”, or enrofloxacin (Baytril®) “ENR”.
The total viable bacteria “TVB” well, when it fluoresces, indicates the presence of bacteria in the urine sample. The “UTI” well fluoresces when the common Gram-negative uropathogens (E. coli, Klebsiella or Enterobacter spp., and P. mirabilis) are present in the urine sample. […]
For each device, after an incubation period of 18 hours, the wells were examined for the development of fluorescence and conclusions about the presence of primary urinary pathogens and their susceptibility to the antimicrobial agents employed were drawn.

[2] = test system: gram negative urinary pathogens (Escherichia coli, Klebsiella spp, Enterobacter spp., Proteus spp.); assay: AMO medium (amoxicillin) in urinary tract infection device; format: cell-based, feline and canine urine specimens
Protocol: The medium is formulated according to techniques well known to those skilled in the art. The medium comprises UTI media with amoxicillin at a concentration of 8 mg/liter.
A total of 303 feline and canine urine specimens were collected from the animals suspected of having urinary tract infection were tested with the “AMO” medium. A 50 μl aliquot of the urine specimen was added to 10 ml of sterile saline solution (0.85% NaCl solution). A 100 μl of the diluted urine specimens were added to the “AMO” medium in the urinary tract infection device; the device was then incubated at 35° C. for 24 hours.

[3] = test system: gram negative urinary pathogens (Escherichia coli, Klebsiella spp, Enterobacter spp., Proteus spp.); assay: standard Kirby-Bauer antimicrobial susceptibility assay, amoxicillin; format: cell-based, feline and canine urine specimens; details: Total of 58
Protocol: (§1) For comparison a traditional microbiological culture, bacterial identification technique, and antimicrobial susceptibility test were performed. A portion of 1 μl urine specimen was streaked onto a blood agar plate; the plate was then incubated at 35° C. for 24–48 hours. […] The susceptibility of amoxicillin of the gram negative urinary pathogens (Escherichia coli, Klebsiella spp, Enterobacter supp., and Proteus spp.) Were performed by standard Kirby-Bauer antimicrobial susceptibility assay.

[4] = test system: gram negative urinary pathogens (Escherichia coli, Klebsiella spp, Enterobacter spp., Proteus spp.); assay: standard Kirby-Bauer antimicrobial susceptibility assay, enrofloxacin; format: cell-based, feline and canine urine specimens; details: Total of 58
Protocol: as §1, with “enrofloxacin” for “amoxicillin”, “spp.,” for “supp.,”, “were” for “Were”

[5] = test system: gram negative urinary pathogens (Escherichia coli, Klebsiella spp, Enterobacter spp., Proteus spp.); assay: ENR medium (enrofloxacin) in urinary tract infection device; format: cell-based, feline and canine urine specimens
Protocol: The medium is formulated according to techniques well known to those skilled in the art. The media comprises UTI media with enrofloxacin (ENR) at a concentration of 2.0 mg/liter.
A total of 303 feline and canine urine specimens were collected from the animals suspected of having urinary tract infection were tested with the “ENR” medium. A 50 μl aliquot of the urine specimen was added to 10 ml of sterile saline solution (0.85% NaCl solution). A 100 μl of the diluted urine specimens was added to the “ENR” medium in the urinary tract infection device; the device was then incubated at 35° C. for 24 hours.

[6] = test system: Escherichia coli ATCC 25922; assay: standard Muller Hinton broth (MHB) microdilution susceptibility; format: cell-based; details: E. coli
Protocol: (§2) The representative primary gram negative urinary pathogens including Escherichia coli ATCC 25922, Klebsiella pneumoniae, Enterobacter cloacae ATCC 13047, and Proteus mirabilis were used to determine the antimicrobial efficacy of cephalothin in CR 30 medium in reaction to the standard Muller Hinton microdilution antimicrobial susceptibility ((NCCLS Antimicrobial Susceptibility Testing/SC3, January, 1996). Cephalothin was prepared in both standard Muller Hinton broth (MHB) and CR30 medium (CR30M) at the following concentrations: 128, 64, 32, 16, 8, 4, 2, and 0 mg/liter. Bacterial inocula used for each level of inoculation were 1–5×10^4 cfu/100 μl. The assays were performed in microliter wells at 35° C. for 18 hours.
(§3) The bacteria are defined as “resistant” to cephalothin if the organism has an MIC of ≧32 μg/ml, as “intermediate resistant” if the MIC is 16 μg/ml, and as “susceptible” if the MIC is 8 μg/ml as determined by the standard Muller Hinton broth (Manual of Clinical Microbiology, 6th ed. 1995; ASM Press).

Proteus mirabilis [7] = assay: as above; format: cell-based; details: P. mirabilis
Protocol: as §2, §3

Klebsiella pneumoniae [8] = assay: as above; format: cell-based; details: K. pneumoniae
Protocol: as §2, §3

[9] = test system: Enterobacter cloacae ATCC 13047; assay: as above; format: cell-based; details: E. cloacae
Protocol: as §2, §3

[10] = test system: Escherichia coli ATCC 25922; assay: CR30 medium (CR30M) microdilution susceptibility; format: cell-based; details: E. coli
Protocol: (§4) The medium is formulated according to techniques well known to those skilled in the art. The medium comprises the uropathogen specific medium with 32 mg/liter of cephalothin.
as §2, §3

Proteus mirabilis [11] = assay: CR30 medium (CR30M) microdilution susceptibility; format: cell-based; details: P. mirabilis
Protocol: as §4, §2, §3

Klebsiella pneumoniae [12] = assay: CR30 medium (CR30M) microdilution susceptibility; format: cell-based; details: K. pneumoniae
Protocol: as §4, §2, §3

[13] = test system: Enterobacter cloacae ATCC 13047; assay: CR30 medium (CR30M) microdilution susceptibility; format: cell-based; details: E. cloacae
Protocol: as §4, §2, §3

[14] = Susceptible by Kirby-Bauer Assay

Q: What does the source list for `CC1(C)S[C@@H]2[C@H](NC(=O)[C@H](N)c3ccc(O)cc3)C(=O)N2[C@H]1C(=O)O` [Amoxicillin, amoxicillin]?
A: susceptibility of primary gram negative uropathogens to the antimicrobial agent [1]: resistant; number of specimens Resistant in AMO Medium ([2]; Resistant by Kirby-Bauer Assay): 21; number of specimens Susceptible in AMO Medium ([2]; Resistant by Kirby-Bauer Assay): 1; number of specimens Resistant in AMO Medium [2, 14]: 1; number of specimens Susceptible in AMO Medium [2, 14]: 35; number of specimens Resistant in AMO Medium ([2]; Total of 58): 22; number of specimens Susceptible in AMO Medium ([2]; Total of 58): 36; number of specimens Resistant by Kirby-Bauer Assay [3]: 22; number of specimens Susceptible by Kirby-Bauer Assay [3]: 36

Q: `CCN1CCN(c2cc3c(cc2F)c(=O)c(C(=O)O)cn3C2CC2)CC1` [Enrofloxacin, enrofloxacin] was tested. Which “susceptibility of primary gram negative uropathogens to the antimicrobial agent” value [1] did it give?
A: The value was “susceptible”.

Q: What about the “number of specimens Resistant by Kirby-Bauer Assay” value [4] of the same compound?
A: Its value is 6.

Q: What about the “number of specimens Susceptible by Kirby-Bauer Assay” value [4] of the same compound?
A: Its value is 52.

Q: What about the “number of specimens Resistant in ENR Medium” value ([5]; Resistant by Kirby-Bauer Assay) of the same compound?
A: Its value is 5.

Q: What about the “number of specimens Susceptible in ENR Medium” value ([5]; Resistant by Kirby-Bauer Assay) of the same compound?
A: The value was 1.

Q: What about the “number of specimens Resistant in ENR Medium” value [5, 14] of the same compound?
A: The value was 2.

Q: And the “number of specimens Susceptible in ENR Medium” value [5, 14]?
A: Its value is 50.

Q: What about the “number of specimens Resistant in ENR Medium” value ([5]; Total of 58) of the same compound?
A: Its value is 7.

Q: And the “number of specimens Susceptible in ENR Medium” value ([5]; Total of 58)?
A: Its value is 51.

Q: Which results are given for `CC(=O)OCC1=C(C(=O)O)N2C(=O)[C@@H](NC(=O)Cc3cccs3)[C@H]2SC1` [cephalothin]?
A: categorical susceptibility to cephalothin [6]: susceptible; categorical susceptibility to cephalothin (Proteus mirabilis [7]): susceptible; categorical susceptibility to cephalothin (Klebsiella pneumoniae [8]): susceptible; categorical susceptibility to cephalothin [9]: resistant; categorical susceptibility to cephalothin [10]: susceptible; categorical susceptibility to cephalothin (Proteus mirabilis [11]): susceptible; categorical susceptibility to cephalothin (Klebsiella pneumoniae [12]): susceptible; categorical susceptibility to cephalothin [13]: resistant
